Tested on: citric acid-induced cough responses
Assay: citric acid-induced cough in conscious guinea-pigs (aerosol pre-treatment)
Assay type: in vivo, guinea-pig
Settings: aerosol 10.0 mg/ml pre-treatment immediately before citric acid (1M) exposure; 15 minute observation period
Source text: The following method is one of the general methods available to determine the antitussive activity of the compounds of the present invention.
Male albino Dunkin-Hartley strain guinea-pigs (weight 300-400 g) can be obtained from various commercial suppliers.
The method is a modification of that described by Adcock J. J., Schneider C. and Smith T. W., “Effects of Morphine and a Novel Opioid Pentapeptide BW443C, on Cough, Nociception and Ventilation in the Unanaesthetized Guinea-pig”, Br. J. Pharmacol., 93, 93-100 (1988). […]
Cylinder air is introduced into the exposure chamber at a flow rate of 1 liter/min, maintained by a needle valve and monitored by a rotameter. […]
Cough responses are induced by exposure to an aerosol of citric acid (1M) for 10 minutes. Animals are continuously monitored by trained observer, and the number of coughs are counted during a 15 minute period from commencement of the citric acid aerosol administration. […]
The three types of response are differentiated primarily by sound and visual observation. […] Each cough is marked on the Grass polygraph paper trace, and from these record numbers, frequency and time of onset of coughs are determined. […]
Quantities of drugs are weighed out and dissolved in a vehicle. […] The sequence of pre-treatment administration is determined according to a 4×4 Latin Square design. […]

Compound: CC(C)[N+](C)(C)CC(O)COc1cccc2ccccc12.[I-] (stereo not shown) [N,N-dimethyl-propranolol iodide, 2-Hydroxy-N-isopropyl-N,N-dimethyl-3-(1-naphthyloxy)propan-1-aminium iodide]
- inhibition of cough responses compared with vehicle (saline) pre-treated guinea pigs: 50-70%

Source: patent US20050197383A1, “Quaternary ammonium compounds and their use as anti-tussive agents” (UCB Farchim S.A., priority 1999, published 2005)
